Data from article PMC8215932, “Novel neuroprotective peptides in the venom of the solitary scoliid wasp Scolia decorata ventralis” (The Journal of Venomous Animals and Toxins Including …, 2021).
Where no end group is shown, it is not given here.

How the values were obtained:
PC12 cells [1] = tested on: PC12 cells
Protocol: (§1) Neuronal cell line (PC12) was used to evaluate the neuroprotective effects of α-scoliidine and β-scoliidine against oxidative stress in vitro. PC12 cell is derived from a transplantable rat pheochromocytoma and was purchased from American Type Culture Collection (USA) (ATCC® CRL-1721™). Cells were routinely cultured in DMEM medium (Sigma-Aldrich) supplemented with 10% fetal bovine serum (Gibco, Waltham, USA), 1% (v/v) of 10000 U/mL penicillin, 10 mg/mL streptomycin and 25 μg/mL amphotericin B solution (Sigma-Aldrich) at 37 °C in an atmosphere of 5% CO2 and 95% air (Water Jacketed CO2 Incubator, Thermo Scientific). At 80% confluence, cells were passaged using trypsin-EDTA solution [0.05% (m/v) trypsin and 0.02% (m/v) EDTA]. Culture medium was replaced every 2-3 days.
PC12 cells were seeded into 96-well plates (Nest Biotechnology, Rahway, USA), at 2.0 × 10^4 cells per well, and were treated with different concentrations (0.1 to 10 µM) of α-scoliidine and β-scoliidine in a final volume of 0.15 mL. The plate was incubated at 37°C for 3, 6, 12, 24, and 48 h. For each concentration and time course studied, there were control and DMSO groups, which represent untreated cells (only one equal volumes of the culture medium) and treated with DMSO 2.5% (v/v) diluted in the medium culture, respectively. The cytotoxic effects of both compounds were determined using crystal violet assay, according to Feoktistova et al.. Briefly, the medium was aspirated, and the cells were washed twice in a gentle stream of tap water. Then, 50 μL of a 0.5 % (v/v) crystal violet staining solution was added to each well, and incubated for 20 min at room temperature on a bench rocker with a frequency of 20 oscillations per min. The plate was washed four times and air-dried for at least 2 h at room temperature. Subsequently, methanol (200 μL) was added to each well, and the plate was incubated with its lid on for 20 min at room temperature on a bench rocker with a frequency of 20 oscillations per min. After, the absorbance of the sample was measured at 570 nm using a SpectraMax reader (Molecular Devices, CA, USA). The cytotoxicity was expressed as percentage (%) of cell integrity relative to control cells (100%).
(§2) All data are presented as mean ± SD of three independent experiments (n = 3) in triplicate. Data were analyzed using one-way analysis of variance (ANOVA) for between-groups comparisons followed by a Tukey’s post-hoc test for multiple comparisons. Values of p < 0.05 were considered to be statistically significant. The analyses were performed using GraphPad Prism 6.0 software (GraphPad Software, Inc., La Jolla, CA).

PC12 cells [2] = settings: cited from earlier work
PC12 cells [3] = tested on: PC12 cells; remark: listed apart in the source
Protocol: as §1
PC12 cells were seeded at 2 x 10^4 cells/well in a 96-well plate (Nest Biotechnology, Rahway, USA) for 24 h, and then two neuroprotective assays were evaluated: 1) Cells were pre-treated with α-scoliidine or β-scoliidine (1 µM) at 37°C for 22 h and, after the mediums were replaced containing the peptide and H2O2 (0.6 mM) and incubated for 2 h more; 2) Cells were pre-treated with α-scoliidine or β-scoliidine (1 µM) for 4 h at 37°C and, after the mediums were replaced containing peptide and H2O2 (0.6 mM) and incubated for 20 h more. The control, α-scoliidine and β-scoliidine groups (without H2O2) were incubated under the same conditions. Next, all experimental groups were analyzed by the crystal violet assay.
as §2

PC12 cells [4] = format: cell-based, rat
Protocol: Culture medium was replaced every 2-3 days.
The effects of α-scoliidine or β-scoliidine on the mitochondrial metabolism of PC12 cells were estimated using 3-(4,5-dimethylthiazol-2-yl)-2,5-diphenyltetrazolium bromide (MTT) reduction assay, as previously described. […] In addition, to the experimental groups mentioned above, two more groups were included in which cells were treated with L-N^Ω-Nitroarginine methyl ester (L-Name; 1 mM) and Bradykinin (Bk; 0.3 µM) in the presence or absence of H2O2. After treatments, cells were treated with 0.5 mg/mL MTT in the same medium culture for 3 h at 37°C. The resulting formazan produced by both cell treatments were dissolved by addition of DMSO. The amount of MTT formazan dissolved in DMSO was determined by measuring absorbance with a microplate reader (Spectramax M3 multi-mode, Molecular Devices, CA, EUA) at 540 nm. Data were expressed as the mean ± SD of mitochondrial metabolism percentage in relation to the control.

cells = settings: cited from earlier work
Source text: The phenomenon of synergistic toxicity of H2O2 effects when two agents are used together, and efficiently potentiate cell damage, has been reported in the literature. Of the several examples of H2O2 toxicity potentiation by oth ...

[5] = tested on: human neuroblast-like cell line SH-SY5Y; settings: cited from earlier work
Source text: (§3) BPP-11e (<[…]) and BPP-AP (<[…]), for example, ...

human neural stem cells = settings: cited from earlier work
Source text: as §3

ACE = assay: Cleavage by ACE (stability test, HPLC); format: in vitro ADME, rabbit; settings: peptide 30 µM, 37°C, four hours, RP-HPLC, UV 214 nm; for metabolised at 4 h, 30 µM: rabbit, ACE
Source text: All chemicals used in the present study were of analytical reagent grade (purity higher than 95%) and purchased from Calbiochem-Novabiochem Corporation (USA), Gibco BRL (New York, USA), Fluka Chemical Corp. (Buchs, Switzerland) or Sigma-Aldrich Corporation (MO, USA). The ACE I from rabbit lung (EC 3.4.15.1) from Sigma-Aldrich. For the reverse phase chromatography, acetonitrile and TFA were acquired from J.T. Baker. The FRET substrate Abz-FRK(Dnp)P-OH (used by ACE-I assays) were provided by Prof. Adriana Carmona, from the Department of Biophysics of UNIFESP-EPM, São Paulo, Brazil.
Both peptides (30 µM) were incubated separately with ACE ([…]) at 37°C for four hours. Samples containing only the synthetic peptides were used as negative control. After incubation, samples were analyzed by reverse phase chromatography on HPLC (Prominence, Shimadzu), using a Shim-pack VP-ODS C-18 column (4.6× 150 mm). Solvents used were 0.1% (v/v) TFA in water (solvent A), and acetonitrile plus solvent A (9:1) as solvent B. Separations were performed at a flow rate of 1 mL/min and a 10-60% gradient of solvent B over 20 min. In all cases, elution was followed by the measurement of ultraviolet absorption (214 nm).

human neprilysin (NEP) = assay: Cleavage by NEP; format: in vitro ADME; settings: isolated human neprilysin (NEP)
Source text: Table 8 Hydrolyses of α-scoliidine and β-scoliidine by human neprilysin (NEP) and angiotensin-converting enzyme (ACE). | column: Cleavage (%)

[6] = tested on: nicotinic acetylcholine receptor (nAChR); settings: prey central nervous system; cited from earlier work
Source text: The first study of solitary wasp venoms was reported in 1987. Two kinins, threonine^6-bradykinin (Thr^6-BK) and megascoliakinin, were isolated and characterized from the venoms of the European scoliid wasps Colpa interrupta and Megascolia flavifrons, respectively. […] Thr^6-BK may be a common component of solitary scoliid wasp venoms, since we identified this peptide as a major component in three scoliid wasp venoms found in Japan [[1 ...

[7] = 0.1 to 10 µM, n = 3 in triplicate

C[S+](C)[O-] [DMSO, dimethyl sulfoxide]
Cell integrity after 24 and 48 h (PC12 cells [1]; 24 and 48 h, compared to the control group, peptides 0.1 to 10 µM, DMSO 2.5% (v/v), n = 3 in triplicate): decreased the cell integrity after 24 and 48 h compared to the control group

Cc1cccc([C@H](C)c2cnc[nH]2)c1C [Dexmedetomidine]
Proliferation in a stress condition (PC12 cells [2]): dose-dependent restored impaired proliferation of PC12 cells in a stress condition
Protection from ROS-induced cytotoxicity (PC12 cells [2]): protected PC12 cells from ROS-induced cytotoxicity
p21 and cyclin D1 expression (PC12 cells [2]): decreased expression of tumor suppressor protein p21 and increased expression of cell cycle-related cyclin D1

OO [H2O2, hydrogen peroxide]
H2O2 concentration above which cytotoxic (PC12 cells [3]): greater than 0.5 mM
H2O2 cytotoxicity dose response, chronic (PC12 cells [3]): also showed a dose-response effect
Reduction of cell viability by H2O2 (PC12 cells [3]): ~ 60%
Metabolic viability (PC12 cells [4]): 32.23 ± 0.96%

COC(=O)[C@@H](N)CCCNC(N)=N[N+](=O)[O-] [L-Name, L-N^Ω-Nitroarginine methyl ester]
Metabolic viability under H2O2 (PC12 cells [4]; pre-treatment 4 h, then + H2O2 0.6 mM 20 h, peptides 1 µM, L-Name 1 mM, Bk 0.30 μM, MTT): prevented the reduction of metabolic viability

O=C1O[C@H]([C@@H](O)CO)C(O)=C1O [ascorbic acid]
Effect on intracellular oxidative potential of H2O2 (cells): enhancement of the intracellular oxidative potential of H2O2

<EARPPHPPIPP [BPP-11e]
Neuroprotection against H2O2-induced oxidative stress [5]: not good neuroprotective peptides against the H2O2-induced oxidative stress

<EARPPHPPIPPAP [BPP-AP]
Neuroprotection against H2O2-induced oxidative stress [5]: not good neuroprotective peptides against the H2O2-induced oxidative stress

Aβ 42: amyloid-β peptide (Aβ) isoform, Aβ 42
Effect on cell proliferation (human neural stem cells): promotes cell proliferation of human neural stem cells in a concentration-dependent manner

DYVTVKGFSPLR [α-scoliidine]
Cleavage by ACE (ACE): not cleaved by the metallopeptidase
metabolised at 4 h, 30 µM (ACE): < 0.01%
metabolised (human neprilysin (NEP)): < 0.01%
Cytotoxicity, cell integrity vs control or DMSO (PC12 cells [1]; 0.1 to 10 µM, 3, 6, 12, 24, and 48 h, mean ± SD of three independent experiments in triplicate): did not show any significant cytotoxicity (p > 0.05) in all dose concentrations, and at the times tested
Cell integrity / neurotoxicity at 6 h (PC12 cells [1]; [7]): showed a tendency for neurotoxicity at 6 h of treatment

DYVTVKGFSPLRKA [β-scoliidine]
Cleavage by ACE (ACE): not cleaved by the metallopeptidase
metabolised at 4 h, 30 µM (ACE): < 0.01%
metabolised (human neprilysin (NEP)): < 0.01%
Cell integrity / neurotoxicity at 6 h (PC12 cells [1]; [7]): decreased cell integrity after 6 h of treatment in all concentration tested

RPPGFTPFR [Thr^6-BK, threonine^6-bradykinin]
Block of nAChR synaptic transmission [6]: irreversibly block the synaptic transmission of the nicotinic acetylcholine receptor (nAChR) in the prey central nervous system

RPPGFTPFRKA [megascoliakinin]
Block of nAChR synaptic transmission [6]: irreversibly block the synaptic transmission of the nicotinic acetylcholine receptor (nAChR) in the prey central nervous system
